Measured values reported in patent US20260071252A1, “REVERSIBLE NANOPARTICLE AGGREGATES AND METHODS FOR DETECTING PROTEASES” (The Regents of the University of California, priority 2022, published 2026).
Where no end group is shown, it is not given here.

What was measured:
HS-PEG-RRK conjugate = system: T1, HS-PEG-RRK conjugate
T1 sequence: RRK

[1] = system: T2, HS-PEG-RRKRRKRRK conjugate
T2 sequence: RRKRRKRRK

HS-PEG-RRKRRK conjugate = system: T3, HS-PEG-RRKRRK conjugate
T3 sequence: RRKRRK

HS-PEG-TSG conjugate = system: T4, HS-PEG-TSG conjugate
T4 sequence: TSG

trypsin activity = test: Detection of trypsin activity in vivo with photoacoustic imaging, gold nanorods assemblies; settings: mouse model
trypsin = test: Trypsin sensing with HS-PEG-peptide conjugates and Arg-Arg-AuNPs assemblies; type: biochemical
Description: Peptides containing the motif Arg-Arg-Lys (RRK) were thus conjugated to a thiolated PEG capped with a carboxyl group (HS-PEG12-COOH, Mw=634 Da) via EDC/NHS cross-linking reaction. Three peptides based on the motif RRK were investigated and the number of RRK repetitions varied from 1 to 3 to increase the mass and charge of the resulting HS-PEG-peptide conjugate (FIG. 6A).
From concentrations of 10 μM, HS-PEG12-COOH is capable to dissociate 100% of the assemblies (FIG. 21). However, the conjugation of the peptides to the HS-PEG12-COOH was expected to decrease its capacity to dissociate the assemblies as it increases its size and charge. In this context, the addition of the HS-PEG-peptide conjugates to AuNPs assemblies could not generate a colorimetric signal. However, in the presence of trypsin, the proteolytic cleavage could progressively remove the amino acids residues from the conjugate, thus reducing its size and charge that would restore the dissociation capacity. A colorimetric signal, proportional to the trypsin activity, could thus be observed (FIG. 6B).
Typically, 1 mL of HS-PEG12-COOH (HS—(CH2CH2O)12—CH2CH2COOH, 634 Da, 1 mM) dissolved in MES buffer (10 mM, pH=5.5) was activated via the addition of 100 μL of EDC (50 mM, MES) and 40 μL of NHS (500 mM, MES). The reaction was stirred at room temperature for one hour. After one hour, 1 mL of peptide (or NH2-molecule) (1 mM) dissolved in PBS (100 mM, pH=7.4) was added to the activated HS-PEG12-COOH. The reaction was stirred for 4 hours at room temperature and then stored at 4° C.
Typically, 5 μL of the PEG-peptide conjugate (0.44 mM) were added to 5 μL of PBS 1×. […] At the end of the incubation, 100 μL of aggregated AuNPs (Arg-Arg-AuNPs) were added, and a color change proportional to the trypsin concentration was observed. UV-Vis spectra were recorded 30 minutes later.

[2] = Dissociation of Arg-Arg-AuNPs assemblies with HS-PEGs (UV-Vis percentage of dissociation, MANTA size)
Source text: Dissociation of the AuNPs assemblies. […] HS-PEG6-OCH3 was chosen because its grafting on AuNPs ensure a high colloidal stability of these latter. Indeed, the grafting of thiolated PEGs has been widely reported in the literature via the formation of a strong Au—S bond conferring to the particles a high colloidal stability due to a combination of hydrophilicity and steric hindrance.^30-32 The Au—S bond being stronger than the arginine-citrate, arginine-gold or even citrate-gold interactions, […] was expected to be capable of progressively replacing the arginine/citrate layers at the gold surface, disrupting the electrostatic network, and eventually dispersing the AuNPs (Scheme 1). Briefly, aqueous suspensions Arg-Arg-AuNPs assemblies were exposed to increasing concentrations of HS-PEG6-OCH3, and the dissociation of the assemblies was characterized by TEM, MANTA, FTIR and UV-Vis spectroscopies (FIG. 2).
The presence of a PEG layer around the AuNPs explains the difference in the hydrodynamic diameter versus the initial AuNPs-citrate (48±32 nm vs 40±25 nm). Remarkably, the LSPR band of the dissociated AuNPs was identical to the AuNPs-citrate: The color of the sample returned to its initial bright red color. […] For the remainder of this study, the efficiency of the dissociation will be characterized by the percentage of dissociation (%) as measured by UV-Vis spectroscopy (comparison between the LSPR band after dissociation versus that from AuNPs-citrate). See the experimental section in the supporting information for more details. […] This finding is particularly interesting because the typical grafting density of HS-PEG6-OCH3 on dispersed AuNPs is reported to be between 3.5 and 4 HS-PEG6-OCH3/nm^2.^33 This implies that no excess of HS-PEGs was needed to dissociate the entire assembly-only enough to cover all the gold surface. It is worth noting that the kinetics of the dissociation was almost instantaneous (equilibrium reached within a minute) (FIG. 14). A video of the dissociation of the AuNPs assemblies is available online.
Dissociation. Stock solutions of the different HS-PEGs with concentrations ranging from 10 μM to 1 mM were prepared. Specific volumes of each solution were added to a 96-well plate in order to reach the desired final HS-PEGs concentration and then 100 μL of Arg-Arg-AuNPs were added. For complex matrices experiments, the Arg-Arg-AuNPs were first concentrated 10 times by centrifugation and then dispersed in complex media (sea water, pooled human saliva, plasma, urine, bile or HEK cell lysates) that represented thus 90% of the total volume except for bile, which was only 20%. Quickly after the addition of AuNPs, the dissociation of the assembly was monitored and the ratio of the absorbances at 520 nm and 700 nm was recorded over time. The percentage of dissociation is described as follows:
The optical absorption measurements were collected using a hybrid multi-mode microplate reader (Synergy™ H1 model, BioTek Instruments, Inc.) in a 96-well plate. The dissociation of assembly was characterized by measuring the ratio of the absorbance at 520 nm or 530 nm and 700 nm or 820 nm for 20 nm NPs or 40 nm NPs, respectively.
The multispectral advanced nanoparticle tracking analysis (MANTA) is a technique that builds images from the particles' light scattering via three lasers of different wavelengths (for example, blue, green, and red); the wavelength of scattering depends on nanoparticle size. Thus, small particles (less than, or <, 100 nm) appear blue while larger particles appear greener or redder. MANTA uses these images to count the nanoparticles and calculate their size based on Brownian motion. […] 3000™ (Horiba Scientific, USA). The temperature was set to 25° C. during the measurement. Automated noise analysis determines the optimal wavelength for representing each nanoparticle. Here, 8-bit composite videos were generated, and 10 videos were used per analysis (300 frames for seconds).

[3] = Dissociation efficiency of HS-PEG6-OCH3 for alternative assembly conditions or coating ligands; settings: high concentration (>100 μM) of HS-PEG6-OCH3
Description: First, peptide-free conditions were used to promote the assembly of AuNPs-citrate and its dissociation with HS-PEG6-OCH3 was evaluated (FIG. 3A). Here, salts were added to AuNPs-citrate to induce aggregation via disruption of the electrostatic repulsion forces between the particles. […] Unlike the peptide Arg-Arg, these ions cannot sterically prevent the AuNPs from falling in an irreversible aggregated state.
AuNPs with different coating ligands were also evaluated and compared to citrate: bis(p-sulfonatophenyl)phenylphosphine (BSPP), mercaptobenzoic acid (MBA), or thiolated PEG-COOH (HS-PEG-COOH; Mw=634 g·mol^−1). […] This is because MBA and HS-PEG-COOH make covalent Au—S bonds with the gold surface that prevent subsequent grafting of HS-PEG6-OCH3.
Finally, an alternative control peptide was used for assembly (Cys-Arg-Lys).

[4] = Dissociation of AgNP aggregates by A18 fragments released by Mpro cleavage; settings: AgNPs 20 nm, color from blue to yellow
[5] = biological target: SARS-CoV-2 main protease (Mpro) (Severe acute respiratory syndrome coronavirus 2, UniProt P0DTD1)

In the case of trypsin, the “dissociation capacity for Arg-Arg-AuNPs after trypsin digestion” value (shortened to “dissociation capacity for Arg-Arg-AuNPs”) (HS-PEG-RRK conjugate) is reported as “HS-PEG-RRK was also enhanced”, the “dissociation capacity for Arg-Arg-AuNPs” value [1] is reported as “the dissociation capacity of HS-PEG-RRKRRK (SEQ ID NO:13) and HS-PEG-[..] (SEQ ID NO:14) was restored” and the “dissociation capacity for Arg-Arg-AuNPs” value (HS-PEG-RRKRRK conjugate) is reported as “the dissociation capacity of HS-PEG-RRKRRK (SEQ ID NO:13) and HS-PEG-[..] (SEQ ID NO:14) was restored”. The “dissociation capacity for Arg-Arg-AuNPs” value (HS-PEG-TSG conjugate) was “It is not impacted by the digestion by trypsin”.

In the case of “HS-PEG-RRKRRK: HS-PEG12-COOH conjugated to peptide RRKRRK via EDC/NHS; mixture of single and multiple conjugations (also: HS-PEG12 conjugated via EDC/NHS, site not given here, mixture of single and multiple conjugations)”, the photoacoustic signal (trypsin activity) is reported as “increase of photoacoustic signal”, the “dissociation capacity of the intact conjugate” value (trypsin; titrated to Arg-Arg-AuNPs, up to >100 μM, no trypsin) is reported as “total quenching of the dissociation capacity” and the “dissociation capacity after digestion with trypsin” value (trypsin; trypsin 10 μM, 37° C., 24 h) is reported as “restored”. For the same compound, the “limit of detection of trypsin” value (trypsin; visual detection) was “picomolar”.

With `COCCOCCOCCOCCOCCOCCOCCS` [HS-PEG6-OCH3, 0-(2-mercaptoethyl)-O′-methyl-hexa(ethylene glycol)] the “size of the aggregates (MANTA)” value ([2]; 2 μM HS-PEG6-OCH3, 10 minutes, from 467±120 nm) was 167±112 nm, the “average size of the aggregates (MANTA)” value ([2]; 4 μM HS-PEG6-OCH3) was 136±85 nm and the “average size of the aggregates (MANTA)” value ([2]; 8 μM HS-PEG6-OCH3) was 124±75 nm. The “dissociation in complex matrices” value ([2]; 10 μM HS-PEG6-OCH3, plasma, urine, saliva, bile, HEK 293 cell lysates, sea water, matrix at least 90% of volume) was “At least 80%”, the aggregates dissociated ([2]; 12 μM HS-PEG6-OCH3, LSPR band identical to AuNPs-citrate) was 100% and the “mean size (MANTA)” value ([2]; 12 μM HS-PEG6-OCH3 and above) was 48±25 nm. The “dissociation of the assembly by HS-PEG6-OCH3” value [3] was “could not dissociate the assemblies”.

In the case of CGGKKEEAVLQ [A18 fragment], the “dissociation of AgNP aggregates” value [4] is reported as “could dissociate AgNP aggregates”, the CDC [5] is reported as 40 µM and the “size of AuNP aggregates after dissociation” value [5] is reported as 26±0.30 nm. For the same compound, the “surface charge after dissociation” value [5] was −27±0.95 mV and the time for dissociation [5] was ≤ 10 min.
